Data reported in patent US20200030242A1, “ORAL DOSAGE FORM WITH DRYING AGENT FOR DELIVERY OF ACTIVE AGENT” (Entrega Inc., priority 2016, published 2020).

Experiment: Surgical Bioavailability Assay
Assay type: in vivo, porcine model
Conditions: neat active agent powder placed via surgical incision, compared to a control oral dosage form
Excerpt: “Surgical Bioavailability Assay” as used herein refers to an assay used to determine bioavailability of an active agent using a surgical testing method. In the Surgical Bioavailability Assay, a porcine model is also used, in which the animals undergo open surgery such that oral dosage forms to be tested can be placed at regions of the intestine of interest, such as the jejunum and ileum. After administration of anesthesia, a ventral midline incision is made to gain access to the animal's abdominal cavity. The jejunum and ileum are exposed, and incisions are made to manually place the oral dosage forms being tested. After oral dosage form placement is complete, the intestinal incisions are closed, and the midline incision can also be temporarily closed. Also, access can be made for blood collection via the carotid artery or jugular vein. […] The percent bioavailability of the active agent provided with the oral dosage form is determined on the basis of the active agent levels detected in these blood samples.
Surgical Bioavailability Assay. […] The percent bioavailability of the active agent provided with the oral dosage form is determined on the basis of the active agent levels detected in these blood samples.

| Compound | bioavailability (FIG. 4) |
| --- | --- |
| C[C@@H](O)[C@@H]1NC(=O)[C@H](CCCCN)NC(=O)[C@@H](Cc2c[nH]c3ccccc23)NC(=O)[C@H](Cc2ccccc2)NC(=O)[C@@H](NC(=O)[C@H](N)Cc2ccccc2)CSSC[C@@H](C(=O)N[C@H](CO)[C@@H](C)O)NC1=O [octreotide] | good bioavailability |
| calcitonin | good bioavailability |
